{"source": "patent US20180051284A1", "about": "“INHIBITORS OF MIR-17-92 CLUSTER FOR ANTI-TUMOR ACTIVITY IN MULTIPLE MYELOMA AND OTHER MALIGNANCIES” (priority 2014, published 2018)", "key": {"[1]": {"system": "RPMI-8226, KMS-12-BM and NCI-H929 MM cells", "assay": "AnnexinV/7-AAD staining apoptosis after transfection", "type": "cell-based, Human", "conditions": "transfection with 25 nM; 48 hours", "protocol": "3×10^5 cells were transfected using Neon Transfection System (Invitrogen, Calif.,U.S.), (2 pulses at 1150, 30ms). The transfection efficiency evaluated by flow-cytometric analysis relative to a FAM dye—labeled anti-miR—negative control reached 85% to 90%.\n(§1) 7-aminoactinomycin was used to evaluate cell viability. The staining was performed according to manufacturer's instructions."}, "[2]": {"system": "miR-17-92 primary transcripts and mature miRNA family members", "assay": "q-RT-PCR after transfectant reagents-free (gymnotic) exposure", "type": "cell-based, Human", "conditions": "six days gymnotic exposure, 1 and 2,5 μM; two MM cell lines (NCI-H929); vs saline vehicle", "protocol": "Cells were seeded at low plating density in order to reach confluence on the final day of the experiments (day 6). Cell number at plating ranged from 0.5 to 2.5×10^3 in 96-well plates, from 2.5 to 10×10^3 in 12-well plates and from 1 to 3×10^4 in 6-well plates.\nThe LNA/DNA Gapmers were used at concentrations ranging from 0.1 to 20 μM.\nReverse transcription (RT) of both primary and mature miRNAs was performed using TaqMan® MicroRNA Assays, following a procedure for multiplexing the RT step (Life Technologies, Publication Part Number 4465407). Briefly, 500 ng of total RNA, prepared with the TRIzol® Reagent (Invitrogen), underwent reverse transcription by the Taq-Man® MicroRNA RT Kit. In this reaction, the RT primer pool was composed by the individual RT primers for each microRNA belonging to the miR-17-92 cluster and two RT primers to allow the reverse transcription of the miR-17-92 primary miRNA. Real-time PCR was performed using TaqMan® MicroRNA Assays together with the TaqMan® Universal PCR Master Mix on an ViiA7 System (Life Technologies). Both primary and mature microRNAs expressions were relatively quantified using the 2-ΔΔCt method (Applied Biosystems User Bulletin No. 2), and expressed as the relative quantity of target miRNA normalized to the RNU44 (assay ID 001094) housekeeping gene. […] Relative expression was calculated using the comparative cross threshold (Ct) method."}, "AMO1 cells": {"system": "AMO1 cells", "assay": "Combination with proteasome inhibitors or melphalan, 7-AAD cell viability, combination index", "type": "cell-based, Human", "conditions": "for CI value of combination with Bortezomib / CI value of combination with Carfilzomib / CI value of combination with Melphalan: AMO1, 6 days", "protocol": "Bortezomib (PS-341, catalog n° S1013) and Carfilzomib (PR-171, catalog n°S2853) were purchased from Selleck. Combination between miR-17-92 LNA gapmer_06 and proteasome inhibitors was tested in AMO1 cells. 1×10^3 cells were plating in 96-well plates. Bortezomib was used at concentrations ranging from 2 nM to 3.5 nM. Carfilzomib was used at concentrations ranging from 0.4 to 0.7 nM. Measurement of synergistic index (SI) was determined with the following formula: SI=(effect induced by miR-17-92 LNA gapmers and proteasome inhibitors in combination)/effect of miR-17-92 LNA gapmers) +(effect of proteasome inhibitors). Interactions were considered synergistic when the SI was >1.\nMelphalan was purchased from Sigma Aldrich (catalog n°M2011). Combination between miR-17-92 LNA gapmer_06 and melphalan was tested in AMO1 cells. Cell number at plating was 1×10^3 in 96-well plates. Melphalan was used at concentrations ranging from 0.5 μM to 2 μM. Measurement of synergistic index (SI) was determined with the following formula: SI=(effect induced by miR-17-92 LNA gapmers and melphalan in combination)/(effect of miR-17-92 LNA gapmers)+(effect of melphalan). Interactions were considered synergistic when the SI was >1.\nas §1\nAMO1 cells were exposed for 6 days to LNA gapmers_06 or each of Bortezomib, Carfilzomib, Melphalan or to combinations of LNA gapmer_06 and each of these drugs.\nCells viability was calculated by flow cytometric analysis of 7-AAD staining and the percentage of living cell was compared to the untreated cells.\nIn Tables 3-5 tests with the respective combinations performed simultaneously are reported. The effect of LNA gapmer_06 was determined separately for Bortezomib, Carfilzomib, and Melphalan explaining the slightly different values. CI (combination index) values are shown (CI<1 synergism, CI=1 additive, […]). For each monotherapy different doses and combinations were tested. Combination index were calculated using the CalcuSyn software."}, "AMO1 xenografts": {"system": "AMO1 xenografts", "assay": "In vivo tumor growth of AMO1 xenografts (IVIS)", "design": "species or system mice", "conditions": "I.P. 2 mg/kg at day 1-4-8-15-22", "text": "Male CB-17 severe combined immunodeficient (SCID) mice (6- to 8-weeks old; Harlan Laboratories, Inc., Indianapolis) were housed and monitored in our Animal Research Facility. All experimental procedures and protocols had been approved by the Institutional Ethical Committee (Magna Graecia University) and conducted according to protocols approved by the National Directorate of Veterinary Services (Italy). In accordance with institutional guidelines, mice were sacrificed when tumors reached 2 cm in diameter or in the event of paralysis or major compromise, to prevent unnecessary suffering. Animal experimental procedures have been performed as in previous reports (Di Martino et al, CCR 2012; Di Martino el al. Oncotarget 2013, Di Martino et al PlosOne 2014). […] Mice were also inoculated with 5×10^6 luciferase gene-marked U266, AMO-1, AMO-1/abzb, treatments were performed intraperitoneally (i.p.), and tumor volume were measured by IVIS Lumina II.\nIn vivo anti-MM activity of LNA gapmer_06 was next evaluated in NOD/SCID mice bearing subcutaneous AMO1 xenografts. […] Tumors volume were measured using IVIS LUMINA II Imaging We next evaluate the in vivo activity in Bortezomib-refractory model of human MM. […] Tumors volume were measured using IVIS LUMINA II Imaging System."}}, "note": "l = locked nucleic acid (LNA); d = 2'-deoxy (DNA)"}
{"substance": "gapmer_06: LNA/DNA gapmer, SEQ ID 4 (14 mer): +T*+A*+C*T*T*G*C*T*T*G*G*+C*+T*+T; + LNA, * phosphorothioate (antisense TACTTGCTTGGCTT; sugars from the 5' end l3 d8 l3, all phosphorothioate, methylation of C not given here)", "values": [{"measurement": "apoptosis (AnnexinV/7-AAD staining)", "setting": "[1]", "result": "increased apoptosis"}, {"measurement": "downregulation of primary transcript and mature single miRNAs (q-RT-PCR)", "setting": "[2]", "result": "downregulation of primary transcript as well as mature single miRNAs, in a dose dependent manner"}, {"measurement": "interaction with Bortezomib to induce cell death", "setting": "AMO1 cells; AMO1 cells, 6 days, combination with Bortezomib", "result": "synergizes"}, {"measurement": "interaction with Carfilzomib to induce cell death", "setting": "AMO1 cells; AMO1 cells, 6 days, combination with Carfilzomib", "result": "synergizes"}, {"measurement": "interaction with Melphalan to induce cell death", "setting": "AMO1 cells; AMO1 cells, 6 days, combination with Melphalan", "result": "synergizes"}, {"measurement": "CI value of combination with Bortezomib", "setting": "AMO1 cells; Bortezomib 0.0035 μm + miR-17-92 LNA gapmer 0.5 μl", "result": 0.759}, {"measurement": "CI value of combination with Bortezomib", "setting": "AMO1 cells; Bortezomib 0.0035 μm + miR-17-92 LNA gapmer 0.75 μl", "result": 0.418}, {"measurement": "CI value of combination with Bortezomib", "setting": "AMO1 cells; Bortezomib 0.0035 μm + miR-17-92 LNA gapmer 1 μl", "result": 0.342}, {"measurement": "CI value of combination with Bortezomib", "setting": "AMO1 cells; Bortezomib 0.0035 μm + miR-17-92 LNA gapmer 1.25 μl", "result": 0.036}, {"measurement": "CI value of combination with Carfilzomib", "setting": "AMO1 cells; Carfilzomib 0.0004 μm + miR-17-92 LNA gapmer 1.25 μl", "result": 0.89}, {"measurement": "CI value of combination with Carfilzomib", "setting": "AMO1 cells; Carfilzomib 0.0005 μm + miR-17-92 LNA gapmer 1.25 μl", "result": 0.55}, {"measurement": "CI value of combination with Carfilzomib", "setting": "AMO1 cells; Carfilzomib 0.0006 μm + miR-17-92 LNA gapmer 1.25 μl", "result": 0.50}, {"measurement": "CI value of combination with Carfilzomib", "setting": "AMO1 cells; Carfilzomib 0.0007 μm + miR-17-92 LNA gapmer 1.25 μl", "result": 0.39}, {"measurement": "CI value of combination with Melphalan", "setting": "AMO1 cells; Melphala 1.5 μm + miR-17-92 LNA gapmer 0.5 μl", "result": 0.78}, {"measurement": "CI value of combination with Melphalan", "setting": "AMO1 cells; Melphala 1.5 μm + miR-17-92 LNA gapmer 0.75 μl", "result": 0.99}, {"measurement": "CI value of combination with Melphalan", "setting": "AMO1 cells; Melphala 1.5 μm + miR-17-92 LNA gapmer 1 μl", "result": 0.65}, {"measurement": "CI value of combination with Melphalan", "setting": "AMO1 cells; Melphala 1.5 μm + miR-17-92 LNA gapmer 1.25 μl", "result": 0.56}, {"measurement": "CI value of combination with Melphalan", "setting": "AMO1 cells; Melphala 1.75 μm + miR-17-92 LNA gapmer 0.5 μl", "result": 0.66}, {"measurement": "CI value of combination with Melphalan", "setting": "AMO1 cells; Melphala 1.75 μm + miR-17-92 LNA gapmer 0.75 μl", "result": 0.89}, {"measurement": "CI value of combination with Melphalan", "setting": "AMO1 cells; Melphala 1.75 μm + miR-17-92 LNA gapmer 1 μl", "result": 0.56}, {"measurement": "CI value of combination with Melphalan", "setting": "AMO1 cells; Melphala 1.75 μm + miR-17-92 LNA gapmer 1.25 μl", "result": 0.47}, {"measurement": "CI value of combination with Melphalan", "setting": "AMO1 cells; Melphala 2 μm + miR-17-92 LNA gapmer 0.5 μl", "result": 0.51}, {"measurement": "CI value of combination with Melphalan", "setting": "AMO1 cells; Melphala 2 μm + miR-17-92 LNA gapmer 0.75 μl", "result": 0.59}, {"measurement": "CI value of combination with Melphalan", "setting": "AMO1 cells; Melphala 2 μm + miR-17-92 LNA gapmer 1 μl", "result": 0.46}, {"measurement": "CI value of combination with Melphalan", "setting": "AMO1 cells; Melphala 2 μm + miR-17-92 LNA gapmer 1.25 μl", "result": 0.26}, {"measurement": "tumor-growth inhibition relative to Bortezomib 1 mg/kg", "setting": "AMO1 xenografts", "result": "almost comparable to Bortezomib effect"}, {"measurement": "tumor growth (IVIS tumor volume)", "setting": "AMO1 xenografts; vs NaCl control", "result": "significant tumor-growth inhibition"}]}
